This is an account of results in BindingDB's records for doi:10.7270/Q2RJ4GVG (The Scripps Research Institute Molecular Screening Center, 2007).

Each structure is given as a SMILES string.

The target in one assay is T1, Isoform 2 of Nuclear receptor ROR-alpha (Alpha-2) (Homo sapiens, UniProt P35398).
T1 sequence (P35398 whole entry): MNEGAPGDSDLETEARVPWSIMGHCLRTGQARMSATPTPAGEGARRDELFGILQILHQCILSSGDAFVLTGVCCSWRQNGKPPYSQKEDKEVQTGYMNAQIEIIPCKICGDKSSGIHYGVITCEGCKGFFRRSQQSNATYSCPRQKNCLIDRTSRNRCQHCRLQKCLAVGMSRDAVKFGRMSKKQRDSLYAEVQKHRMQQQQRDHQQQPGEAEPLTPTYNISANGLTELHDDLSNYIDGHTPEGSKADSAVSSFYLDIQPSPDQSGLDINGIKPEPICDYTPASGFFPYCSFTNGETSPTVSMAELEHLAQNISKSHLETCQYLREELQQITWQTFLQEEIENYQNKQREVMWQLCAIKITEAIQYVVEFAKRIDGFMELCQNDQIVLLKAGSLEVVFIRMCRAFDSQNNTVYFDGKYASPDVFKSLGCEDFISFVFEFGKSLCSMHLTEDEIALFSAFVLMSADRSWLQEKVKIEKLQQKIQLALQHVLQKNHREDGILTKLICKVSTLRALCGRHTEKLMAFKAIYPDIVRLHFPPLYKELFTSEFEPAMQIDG
The assay can be described thus: RORA ligand-binding domain transactivation agonists – cell-based, CHO-K1, Gal4-RORA LBD, luciferase luminescence, dose response (AID 681).
Settings: not given
For `O=C1N(CCCN2C(=O)C3(OCCO3)c3ccccc32)c2ccccc2C12OCCO2` [1'-[3-(2'-ketospiro[1,3-dioxolane-2,3'-indoline]-1'-yl)propyl]spiro[1,3-dioxolane-2,3'-indoline]-2'-one], the EC50 – broadly, the concentration that produces a half-maximal response – is over 99000 nM.
Still for that read-out and setting: the figure for `COc1cc(C)c(C(C)C)cc1S(=O)(=O)n1cnc(C)c1` [1-(2-methoxy-4-methyl-5-propan-2-yl-phenyl)sulfonyl-4-methyl-imidazole] is 1850 nM; for `CN1CCN(S(=O)(=O)c2ccc(Br)s2)CC1` [1-(5-bromanylthiophen-2-yl)sulfonyl-4-methyl-piperazine] it is over 99000 nM.
On the same count and under the same terms, to `Clc1ccccc1OCCn1cnc2ccccc21` [1-[2-(2-chloranylphenoxy)ethyl]benzimidazole] belongs over 1220 nM; to `O=C(c1ccc(-c2nnc(-c3ccccc3)o2)cc1)N1CCCCCC1` [1-azepanyl-[4-(5-phenyl-1,3,4-oxadiazol-2-yl)phenyl]methanone], 282 nM.
On the same count and under the same terms, to `Cn1c(SCc2ccccc2F)nc2cccnc21` [2-(2-Fluoro-benzylsulfanyl)-3-methyl-3H-imidazo[4,5-b]pyridine] belongs 1980 nM; to `Clc1ccc(-c2nnc(-c3ccccc3Cl)o2)cc1` [2-(2-chlorophenyl)-5-(4-chlorophenyl)-1,3,4-oxadiazole], 431 nM.
For `COc1ccc(Nc2oc(-c3ccccc3Cl)nc2C#N)cc1` [2-(2-chlorophenyl)-5-(4-methoxyanilino)-1,3-oxazole-4-carbonitrile], the EC50 amounted to 1920 nM.
Still for that read-out and setting: to `CCCCOC(=O)C(C)Oc1ccc(=O)n(-c2ccccc2)n1` (stereo unspecified) [2-(6-keto-1-phenyl-pyridazin-3-yl)oxypropionic acid butyl ester] belongs over 99000 nM; to `CCOC(=O)c1ccccc1NC(=O)CSc1nnnn1C1CCCCC1` [2-[2-(1-Cyclohexyl-1H-tetrazol-5-ylsulfanyl)-acetylamino]-benzoic acid ethyl ester], over 99000 nM.
Still for that read-out and setting: the figure for `Cc1cc(NCCOCCO)n2ncc(-c3ccc(Cl)cc3)c2n1` [2-[2-[[3-(4-chlorophenyl)-5-methyl-7-pyrazolo[1,5-a]pyrimidinyl]amino]ethoxy]ethanol] is 536 nM; for `CCCCOc1ccc(-c2nnn(CC(=O)NCc3ccco3)n2)cc1` [2-[5-(4-Butoxy-phenyl)-tetrazol-2-yl]-N-furan-2-ylmethyl-acetamide] it is 5070 nM; for `Nc1c(C(=O)NCCN2CCOCC2)c2nc3ccccc3nc2n1-c1ccc2c(c1)OCO2` [2-amino-1-(1,3-benzodioxol-5-yl)-N-(2-morpholin-4-ylethyl)pyrrolo[3,2-b]quinoxaline-3-carboxamide] it is over 1100 nM.
The same measure, in the same setting: the figure for `O=C(c1ccco1)N1CCN(c2ncnc3c(-c4ccccc4)nsc23)CC1` [2-furanyl-[4-(3-phenyl-7-isothiazolo[4,5-d]pyrimidinyl)-1-piperazinyl]methanone] is 4340 nM.
Regarding `COCCOC(=O)c1[nH]c2c(c1C)C(=O)CC(c1cc(OC)ccc1OC)C2` (stereo unspecified) [2-methoxyethyl 6-(2,5-dimethoxyphenyl)-3-methyl-4-oxo-1,5,6,7-tetrahydroindole-2-carboxylate], the EC50 was over 3670 nM.
Same read-out and setting: the figure for `Cc1cc(N)c(NC2=CC(=O)CC(C)(C)C2)cc1C` [3-(2-amino-4,5-dimethyl-anilino)-5,5-dimethyl-cyclohex-2-en-1-one] is over 99000 nM; for `CC(=O)C(C)Oc1ccc2c3c(c(=O)oc2c1C)CCCC3` (stereo unspecified) [3-(2-keto-1-methyl-propoxy)-4-methyl-7,8,9,10-tetrahydrobenzo[c]chromen-6-one] it is 628 nM; for `COc1cccc(-c2noc(-c3cccs3)n2)c1` [3-(3-methoxyphenyl)-5-(2-thienyl)-1,2,4-oxadiazole] it is over 407 nM.
Same read-out and setting: the figure for `COc1cccc(-c2noc(-c3cccnc3)n2)c1` [3-(3-methoxyphenyl)-5-(3-pyridinyl)-1,2,4-oxadiazole] is 853 nM; for `O=C1OC(N2CCN(Cc3ccccc3)CC2)c2ccccc21` (stereo unspecified) [3-(4-benzylpiperazin-1-yl)-3H-2-benzofuran-1-one] it is over 99000 nM; for `Cc1cc(NC(=O)c2oc3ccccc3c2C)ccc1-n1cnnn1` [3-Methyl-benzofuran-2-carboxylic acid (3-methyl-4-tetrazol-1-yl-phenyl)-amide] it is 8220 nM.
On the same count and under the same terms, to `CCn1c(-c2ccc(N(C)C)cc2)nc2ccccc21` [4-(1-ethyl-2-benzimidazolyl)-N,N-dimethylaniline] belongs 823 nM; to `COc1ccccc1-c1nc(-c2ccncc2)no1` [4-[5-(2-Methoxy-phenyl)-[1,2,4]oxadiazol-3-yl]-pyridine], 3440 nM; to `Cc1ccccc1Cn1ccc(NC(=O)c2onc(C)c2Cl)n1` [4-chloranyl-3-methyl-N-[1-[(2-methylphenyl)methyl]pyrazol-3-yl]-1,2-oxazole-5-carboxamide], over 11000 nM.
In turn, `COc1ccc(C(=O)Nc2cc(C)on2)cc1` [4-methoxy-N-(5-methyl-1,2-oxazol-3-yl)benzamide] displayed an EC50 of 1050 nM.
`Cc1ccc(-c2nc(C#N)c(NCc3ccco3)o2)cc1` [5-(2-furanylmethylamino)-2-(4-methylphenyl)-4-oxazolecarbonitrile] came in with an EC50 of 2320 nM.
On the same count and under the same terms, to `Oc1coc2ccc(OCc3ccc(F)cc3)cc12` [5-(4-fluorobenzyl)oxycoumaran-3-one] belongs 3630 nM; to `CCOc1ccc(-c2nc(C#N)c(NC3CC3)o2)cc1` [5-(cyclopropylamino)-2-(4-ethoxyphenyl)-1,3-oxazole-4-carbonitrile], 624 nM; to `Cc1ccc2nc(Nc3ccc4[nH]c(O)nc4c3)c(-n3nc(C)cc3C)nc2c1` [5-[[3-(3,5-dimethyl-1-pyrazolyl)-6-methyl-2-quinoxalinyl]amino]-1,3-dihydrobenzimidazol-2-one], over 3670 nM.
`COc1cccc(NC(=O)c2nnn(Cc3ccc(Br)cc3F)c2N)c1` [5-amino-1-(4-bromo-2-fluoro-benzyl)-N-(3-methoxyphenyl)triazole-4-carboxamide] returned an EC50 of 4570 nM.
Still for that read-out and setting: the figure for `O=C(Nc1ccc(N2CCCCC2)cc1)c1cncc(Br)c1` [5-bromanyl-N-(4-piperidin-1-ylphenyl)pyridine-3-carboxamide] is 1020 nM; for `CCOc1cc(N2CCOCC2)c(OCC)cc1NS(=O)(=O)c1ccc(Cl)s1` [5-chloranyl-N-(2,5-diethoxy-4-morpholin-4-yl-phenyl)thiophene-2-sulfonamide] it is 2640 nM.
On the same count and under the same terms, to `CCN(CCCNC(=O)c1cn(CC)c2ccc(S(=O)(=O)N(C)C)cc2c1=O)c1cccc(C)c1` [6-(dimethylsulfamoyl)-1-ethyl-N-[3-(N-ethyl-3-methyl-anilino)propyl]-4-keto-quinoline-3-carboxamide] belongs over 99000 nM; to `COC(=O)c1c(NC(=O)CC2SCC(C(=O)OC)NC2=O)sc2c1CCCC2` (stereo unspecified) [6-[2-[(3-carbomethoxy-4,5,6,7-tetrahydrobenzothiophen-2-yl)amino]-2-keto-ethyl]-5-keto-thiomorpholine-3-carboxylic acid methyl ester], over 99000 nM.
On the same count and under the same terms, the figure for `Cc1cccn2cc(-c3ccccc3)nc12` [8-methyl-2-phenyl-imidazo[1,2-a]pyridine] is 563 nM; for `Cn1cccc1C(=O)OCc1csc(-c2ccccc2)n1` [(2-phenyl-1,3-thiazol-4-yl)methyl 1-methylpyrrole-2-carboxylate] it is 221 nM.
As for `CCOC(=O)CSc1nc2cc(OCC)ccc2cc1C#N` [(3-Cyano-7-ethoxy-quinolin-2-ylsulfanyl)-acetic acid ethyl ester], the EC50 stood at 1830 nM.
Still for that read-out and setting: to `CC1=CCC(COC(=O)Nc2ccccc2)CC1` (stereo unspecified) [(4-methylcyclohex-3-en-1-yl)methyl N-phenylcarbamate] belongs 1530 nM; to `CCN(CC)C(=O)Oc1ccc2c(=O)c(-c3ccccc3)coc2c1` [(4-oxidanylidene-3-phenyl-chromen-7-yl) N,N-diethylcarbamate], 1240 nM.
`CCOC(=O)Nc1ccc2c(c1)Nc1ccccc1S2` [(10H-Phenothiazin-2-yl)-carbamic acid ethyl ester]: the EC50 is 3430 nM.
Same read-out and setting: the figure for `C=CCOc1ccc(C=CC(C)N=O)cc1` (stereo unspecified) [(E)-4-(4-allyloxyphenyl)but-3-en-2-one oxime] is 1350 nM.
On to `CCOc1ccc(C=CC(C)N=O)cc1` (stereo unspecified) [(Z)-4-(4-ethoxyphenyl)-3-buten-2-one oxime], for which the response was half-maximal at 491 nM (EC50).
On the same count and under the same terms, the figure for `CC(C)CNS(=O)(=O)c1ccc(C(=O)Nc2ccc3c(c2)OCCO3)cc1` [MLS000032888] is 3480 nM.
Compound `COc1ccc(C(O)P(=O)(O)CCc2ccccc2)cc1` (stereo unspecified) [MLS000038577] came in with an EC50 of over 99000 nM.
Same read-out and setting: the figure for `COc1ccc(C(=O)n2c(-c3ccco3)nc3ccccc32)cc1` [MLS000039368] is 4000 nM; for `COc1ccccc1-c1nnc(NC(C)=O)s1` [MLS000041972] it is 1750 nM; for `CCn1c(Cn2nnc(-c3ccccc3)n2)nnc1SCC(=O)Nc1ccc(C(C)=O)cc1` [MLS000068275] it is over 99000 nM.
The same measure, in the same setting: the figure for `CCOc1ccc2nc(NC(=O)c3cnccn3)sc2c1` [MLS000070707] is over 136 nM; for `COc1ccc2nc(NC(=O)CSc3nnc(-c4ccoc4C)n3C)sc2c1` [MLS000073639] it is 2030 nM; for `CCc1nnc2c3cnn(-c4ccccc4)c3ncn12` [MLS000080478] it is over 3670 nM.

Staying with this assay, now noted: inactive by the depositor's call.
Regarding `O=c1c2ccccc2nc2ccc(NCc3ccco3)nn12` [2-(2-furanylmethylamino)-10-pyridazino[6,1-b]quinazolinone], the midpoint of the response, the EC50, lay at 10800 nM.
